# Data as given in PubChem BioAssay AID463206 (Broad Institute, 2010).
# Activity calls are given as the source filed them.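 Rule for the calls: active = caspase luminescence falls with dose and the half-maximal concentration AC50 from the fitted curve is at or below a set limit; inconclusive = flat fit at 30 to 70% signal loss, or invalid fit; inactive = AC50 above the limit, or signal rises instead.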
# Test system: INS-1E cytokine-induced caspase-3/7, Caspase-Glo luminescence, 48 h
# Test: inhibitors of cytokine-induced caspase-3/7 activity, dose response, orthogonal assay for beta-cell apoptosis protection project, INS-1E rat cells, luminescence (AID 463206)
row,Compound,AC50
1,O=C1C(Cl)=C(Nc2ccc3cn[nH]c3c2)C(=O)c2ccccc21,> 26 µM (inactive)
2,O=C(c1cnc(N2CCN(c3ccccn3)CC2)c2ccccc12)N1CCN(c2cccc(Cl)c2)CC1,> 26 µM (inactive)
3,N#CC1=C(N)N2C(=C(C#N)C1c1ccc(Br)cc1)Nc1ccccc12 (stereo not given),> 26 µM (inactive)
4,O=C(N/N=C\c1c(O)ccc2ccccc12)c1ccc(S(=O)(=O)N2CCCCC2)cc1,> 26 µM (inactive)
5,COc1ccc(OC)c(NC(=O)c2nc(S(=O)(=O)Cc3ccccc3)ncc2Cl)c1,> 26 µM (inactive)
6,O=C(N/N=C/c1cccc(F)c1)c1c(O)c2ccccc2[nH]c1=O,> 26 µM (inactive)
7,Cc1ccc(-c2nc(N/N=C/c3cccnc3)c3ccccc3n2)cc1,> 26 µM (inactive)
8,Cn1c(-c2ccccc2)cc2c3no[n+]([O-])c3ccc21,> 26 µM (inactive)
9,COc1ccccc1C(CCNCc1ccc(N(C)C)cc1)c1ccc(OC(C)C)cc1 (stereo not given),> 26 µM (inactive)
10,Cc1cc(N2CCOCC2)n2ncc(-c3ccccc3)c2n1,> 26 µM (inactive)
11,COc1ccc(NC(=O)N(C)C[C@H]2Oc3c(NS(=O)(=O)c4ccc(F)cc4)cccc3C(=O)N([C@H](C)CO)C[C@@H]2C)cc1,> 26 µM (inactive)
12,COc1ccc(C(=O)/C(=C\c2ccco2)N2C=CC=CC2=C(C#N)C#N)cc1,> 26 µM (inactive)
13,CCOC(=O)c1cnc(-n2nc(C)cc2C)nc1NNc1cc(C)nc(-c2ccccc2)n1,> 26 µM (inactive)
14,COC(=O)c1ccc(COc2ccccc2/C=C(\C#N)C(=O)Nc2c(C)cccc2C)cc1,> 26 µM (inactive)
15,COC(=O)c1cc(O)cc(OC)c1Oc1cc(C)cc(O)c1C(=O)O,3.06 µM
16,O=C(Nc1nc2ccc([N+](=O)[O-])cc2s1)c1ccc(S(=O)(=O)N2CCCc3ccccc32)cc1,> 26 µM (inactive)
17,COc1cc(SC)ccc1C(=O)Nc1nc2ccccc2[nH]1,> 26 µM (inactive)
18,COc1ccc(/C=N/NC(=O)c2nc(-c3ccccc3)n(-c3ccccc3)n2)c(O)c1,> 26 µM (inactive)
19,O=C(Nc1ccc(C(=O)Nc2ccccc2Cl)cc1)c1cccnc1,> 26 µM (inactive)
20,Cc1ccccc1/C=N/Nc1ccnc2cc(Cl)ccc12,> 26 µM (inactive)
21,Cc1ccc(S(=O)(=O)Nc2cc(Cl)c(O)c3ncccc23)cc1,> 26 µM (inactive)
22,O=C(Nc1nc(NC(=O)c2ccco2)n(-c2ccccc2)n1)c1ccccc1,> 26 µM (inactive)

row,Compound,AC50
1,Clc1ccc(C(c2ccc(Cl)cc2)n2cc[n+](CC(OCc3ccc(Cl)cc3Cl)c3ccc(Cl)cc3Cl)c2)cc1 (stereo not given),> 26 µM (inactive)
2,Cc1cc(C(C)(C)CC(C)(C)C)ccc1OCCOCC[N+](C)(C)Cc1ccccc1,> 26 µM (inactive)
3,COc1ccc(-[n+]2c(-c3ccccc3)cc(-c3ccccc3)cc2-c2ccccc2)cc1,> 26 µM (inactive)
4,CCCCCCCCCn1ccc(=N)cc1,> 26 µM (inactive)
5,C/C(=N\NC(=O)C(C)Oc1ccc([N+](=O)[O-])cc1)c1ccccn1 (stereo not given),> 26 µM (inactive)
6,O=C(c1cc(-c2cccc(O)c2)on1)N1CCN(C(c2ccccc2)c2ccccc2)CC1,> 26 µM (inactive)
7,O=C(c1ccco1)c1coc2c1cc(O)c1ccccc12,> 26 µM (inactive)
8,COc1ccc(-c2csc(NC(=O)C3CCN(c4ncnc5sc(C)c(C)c45)CC3)n2)cc1OC,> 26 µM (inactive)
9,CC(C)CNC(=O)COC(=O)c1c2c(nc3ccccc13)/C(=C/c1cccs1)CC2,> 26 µM (inactive)
10,Cc1ccc(-c2csc(N3CCC(NS(=O)(=O)c4ccc5c(c4)OCCO5)CC3)n2)cc1,> 26 µM (inactive)
11,NC1=NC[C@@H](CC2CCCCC2)N1CCc1cc(C(F)(F)F)cc(C(F)(F)F)c1,> 26 µM (inactive)
12,Cc1ccc(S(=O)(=O)CC2CSc3nc4ccccc4n32)cc1 (stereo not given),> 12 µM (inactive)
13,Cc1ccc(NC2=C/C(=N\S(=O)(=O)c3cccs3)c3ccccc3C2=O)c(C)c1,> 26 µM (inactive)
14,CCOC(=O)C1=C(CCc2ccccc2)NC(=O)NC1c1ccc2ccccc2c1 (stereo not given),> 26 µM (inactive)
15,O=C(Nc1ccc(Cl)cc1)Nc1ccc(N2CCCC2)c(S(=O)(=O)Nc2ccccc2Cl)c1,> 26 µM (inactive)
16,CCOc1ccc(OCc2ccc(C(=O)NN=Cc3ccc[nH]3)cc2)cc1,> 26 µM (inactive)
17,COc1ccc(C(=O)N/N=C(\c2ccccc2)c2ccccn2)cc1,> 26 µM (inactive)
18,O=C(Oc1c(CN2CCOCC2)cc(Cl)c2cccnc12)c1ccccc1,> 26 µM (inactive)
19,COc1ccc(/C(C)=N/NC(=O)c2cccc(S(=O)(=O)N3CCCC3)c2)c(O)c1,> 26 µM (inactive)
20,CCOC(=O)/C(=C\c1ccc([N+](=O)[O-])cc1)C(=O)c1cc(C(C)=O)c(Nc2ccccc2)s1,> 26 µM (inactive)
21,O=C(N/N=C/c1cccnc1)c1ccc(NC(=O)C(c2ccccc2)c2ccccc2)cc1,> 26 µM (inactive)
22,Cc1ccccc1/C=C/C(=O)c1ccc([N+](=O)[O-])o1,> 26 µM (inactive)

row,Compound,AC50
1,COc1ccc(C)cc1NS(=O)(=O)c1ccc(NC(=O)CN(c2cc([N+](=O)[O-])ccc2C)S(C)(=O)=O)cc1,> 26 µM (inactive)
2,CC(=O)c1sc(NC(=O)C2(F)C(F)(F)C(F)(F)C(F)(F)C(F)(F)C2(F)F)nc1C,> 26 µM (inactive)
3,CCCC(=O)NC(c1ccc(OC)c(OC)c1)c1cc(Cl)c2cccnc2c1O (stereo not given),> 26 µM (inactive)
4,CCCCCCCCCCn1ccc(=N)cc1,> 26 µM (inactive)
5,COc1cc([N+](=O)[O-])ccc1NC(=O)CC1SC(=Nc2ccc(F)cc2)N(CCC2=CCCCC2)C1=O (stereo not given),> 26 µM (inactive)
6,C=C[C@H](CC(C)C)N(Cc1ccccc1)S(=O)(=O)N(Cc1ccccc1)[C@@H](C=C)CC(C)C,> 26 µM (inactive)
7,Cc1ccc(C)n1-c1ccc(C(=O)Nc2ccccc2)cc1,> 26 µM (inactive)
8,CCO[C@H]1OC(C(=O)N2CCN(Cc3ccc4c(c3)OCO4)CC2)=C[C@@H](c2csc3ccccc23)[C@@H]1CCCO,> 26 µM (inactive)
9,C/C(=N\NC(=O)c1cc(-c2cccs2)nc2ccccc12)c1ccccn1,> 26 µM (inactive)
10,Cc1ccc(C(=O)N2N=C(c3ccc(Br)cc3)CC2c2ccccc2O)cc1 (stereo not given),> 26 µM (inactive)
11,Cn1nc(-c2ccccn2)nc2c(=O)n(C)c(=O)nc1-2,> 26 µM (inactive)
12,CC(C)(C)c1nnc(N/N=C/c2cc(Br)ccc2O)n(N)c1=O,> 26 µM (inactive)
13,CN1/C(=C\C(=O)c2ccco2)C(C)(C)c2ccccc21,> 26 µM (inactive)
14,O=C(N/N=C/c1c(O)ccc2ccccc12)c1ccc(Br)o1,> 26 µM (inactive)
15,Cc1ccccc1Oc1nc(-c2ccccn2)nc2ccccc12,> 26 µM (inactive)
16,COc1ccc(C2=NNC(=Nc3cc(S(=O)(=O)N(C)C)ccc3C)SC2)c(OC)c1,24.8 µM
17,O=C(c1ccc(Cl)cc1)C(CN1CCCCC1)c1ccccc1 (stereo not given),> 26 µM (inactive)
18,COc1cc(N/N=C/c2ccccc2O)ncn1,> 26 µM (inactive)
19,COc1ccccc1NC(=O)c1nc(S(=O)(=O)Cc2ccccc2)ncc1Cl,> 26 µM (inactive)
20,Oc1[nH]c(N=C2N=c3ccccc3=N2)c2ccccc12,> 26 µM (inactive)
21,O=C(Nc1cccc([N+](=O)[O-])c1)c1cc2ccccc2cc1O,> 26 µM (inactive)
